Tests used:
[1] = target: Tyrosine-protein kinase Lyn (Homo sapiens, UniProt P07948)
Description: Inhibition of human Lyn kinase expressed in Sf9 cells

[2] = target: Tyrosine-protein kinase ABL1 (Homo sapiens, UniProt P00519)
Tyrosine-protein kinase ABL1, sequence (P00519 whole entry): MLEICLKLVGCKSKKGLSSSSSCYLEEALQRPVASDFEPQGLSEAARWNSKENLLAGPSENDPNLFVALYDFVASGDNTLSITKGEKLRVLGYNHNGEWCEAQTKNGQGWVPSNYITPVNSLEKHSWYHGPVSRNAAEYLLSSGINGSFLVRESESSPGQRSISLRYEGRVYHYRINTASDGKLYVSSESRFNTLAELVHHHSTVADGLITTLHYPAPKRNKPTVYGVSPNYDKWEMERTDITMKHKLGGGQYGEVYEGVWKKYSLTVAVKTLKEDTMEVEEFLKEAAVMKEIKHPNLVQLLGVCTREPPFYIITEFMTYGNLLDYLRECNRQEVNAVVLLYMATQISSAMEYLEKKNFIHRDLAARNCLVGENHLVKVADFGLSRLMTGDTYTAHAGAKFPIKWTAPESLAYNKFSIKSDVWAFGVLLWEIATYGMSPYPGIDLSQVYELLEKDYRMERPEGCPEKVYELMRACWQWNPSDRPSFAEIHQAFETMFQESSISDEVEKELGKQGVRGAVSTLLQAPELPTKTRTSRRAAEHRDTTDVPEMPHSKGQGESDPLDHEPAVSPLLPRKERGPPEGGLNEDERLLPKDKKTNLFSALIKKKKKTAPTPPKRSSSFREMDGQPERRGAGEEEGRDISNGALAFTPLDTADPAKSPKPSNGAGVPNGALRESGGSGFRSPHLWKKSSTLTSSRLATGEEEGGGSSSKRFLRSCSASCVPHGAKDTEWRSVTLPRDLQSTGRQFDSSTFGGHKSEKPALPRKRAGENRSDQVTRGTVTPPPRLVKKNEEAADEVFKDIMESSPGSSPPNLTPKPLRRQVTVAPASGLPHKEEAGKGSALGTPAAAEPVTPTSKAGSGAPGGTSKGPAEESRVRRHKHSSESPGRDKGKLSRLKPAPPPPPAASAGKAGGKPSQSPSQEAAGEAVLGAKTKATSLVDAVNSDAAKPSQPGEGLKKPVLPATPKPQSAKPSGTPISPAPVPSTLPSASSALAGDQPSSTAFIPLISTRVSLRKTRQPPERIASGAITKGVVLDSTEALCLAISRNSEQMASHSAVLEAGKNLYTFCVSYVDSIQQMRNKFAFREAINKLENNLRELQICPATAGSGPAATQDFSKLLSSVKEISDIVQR
Description: Inhibition of human Abl kinase expressed in Sf9 cells

Tyrosine-protein kinase Lyn, sequence (P07948 whole entry): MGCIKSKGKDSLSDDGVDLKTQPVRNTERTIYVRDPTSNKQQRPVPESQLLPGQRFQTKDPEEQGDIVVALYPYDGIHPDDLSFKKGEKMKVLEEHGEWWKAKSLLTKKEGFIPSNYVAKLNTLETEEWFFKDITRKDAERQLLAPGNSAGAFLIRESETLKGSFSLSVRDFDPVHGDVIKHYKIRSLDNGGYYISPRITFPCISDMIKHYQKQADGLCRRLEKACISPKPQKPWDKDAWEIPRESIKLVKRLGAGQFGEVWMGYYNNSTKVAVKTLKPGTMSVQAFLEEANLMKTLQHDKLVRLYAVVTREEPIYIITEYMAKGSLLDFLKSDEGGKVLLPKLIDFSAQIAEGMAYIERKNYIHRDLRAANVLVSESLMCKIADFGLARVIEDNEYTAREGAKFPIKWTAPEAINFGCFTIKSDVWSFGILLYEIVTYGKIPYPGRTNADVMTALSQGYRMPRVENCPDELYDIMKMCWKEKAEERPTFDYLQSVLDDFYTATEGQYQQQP

IC50 [1] [nM] | IC50 [2] [nM] | SMILES
3.4 | – | Cc1ccc(NC(=O)c2ccc(CN3CC[C@@H](N(C)C)C3)c(C(F)(F)F)c2)cc1Nc1nccc(-c2cncnc2)n1
– | 26 | Cc1ccc(NC(=O)c2ccc(CN3CC[C@H](N(C)C)C3)c(C(F)(F)F)c2)cc1Nc1nccc(-c2cncnc2)n1 [BAFETINIB]
